In publication PMC3175485 (2011):

Molecular target: PDE4D3 (Homo sapiens, UniProt Q08499)
Assay: biochemical

Sequence of PDE4D3 (Q08499 1-673 isoform Q08499-2): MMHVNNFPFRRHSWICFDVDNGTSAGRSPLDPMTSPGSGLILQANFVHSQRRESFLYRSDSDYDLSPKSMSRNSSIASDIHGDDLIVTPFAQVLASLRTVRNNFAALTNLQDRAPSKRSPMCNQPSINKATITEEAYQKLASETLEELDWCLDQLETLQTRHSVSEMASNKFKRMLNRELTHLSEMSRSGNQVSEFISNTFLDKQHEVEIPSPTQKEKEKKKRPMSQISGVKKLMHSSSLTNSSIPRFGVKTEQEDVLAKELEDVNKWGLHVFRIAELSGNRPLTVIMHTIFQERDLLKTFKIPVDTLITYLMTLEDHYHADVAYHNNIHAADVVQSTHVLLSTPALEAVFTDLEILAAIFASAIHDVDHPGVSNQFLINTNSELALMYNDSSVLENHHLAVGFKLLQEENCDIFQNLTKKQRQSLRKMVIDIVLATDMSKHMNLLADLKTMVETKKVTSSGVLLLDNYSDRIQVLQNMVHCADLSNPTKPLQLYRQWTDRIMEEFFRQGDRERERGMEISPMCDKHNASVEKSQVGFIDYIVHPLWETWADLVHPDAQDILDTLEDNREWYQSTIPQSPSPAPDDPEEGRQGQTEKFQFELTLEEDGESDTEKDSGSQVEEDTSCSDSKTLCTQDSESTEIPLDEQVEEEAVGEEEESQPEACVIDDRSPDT

- IC50: 3.6 ± 0.5 µM
SMILES: COc1ccc(-c2cc(C(F)F)nn2-c2ccc(S(N)(=O)=O)cc2)cc1F [deracoxib]
